Experimental data from US8901118B2, “Compounds and methods for kinase modulation, and indications therefor” (Plexxikon Inc., priority 2010, dated 2014).
pIC50: −log10 of the molar value.

Experiments:
BCR-TRK1 BaF3 cells = assay: Splenomegaly mouse model, BCR-TRK1 BaF3 cells; type: in vivo
Description: BaF3 cells are engineered with any of BCR-FMS, BCR-TRK1 or BCR-TRK2 to assess in vivo inhibitory effects of Fms, TrkA or TrkB inhibition, respectively. BaF3 cells are maintained in growth media (RPMI containing 10% FBS, 1% PenStrep, 1% NEAA, and 1% L-Glutamine, supplemented with 5% murine IL-3 and 1 mg/mL G418). Four days prior to start, 2×10^6 cells are inoculated into a T150 vented flask using the growth media and incubated at 37° C. in 5% CO2 for three days. One day prior to start, cells are collected by centrifugation and are suspended in growth media without IL-3. On the day of cell implant, the cells are collected by centrifugation, rinsed 3×20 mL with RPMI, then are suspended in 5.4 mL of media and counted, then adjusted with additional RPMI as needed to give 5×10^7 cells/mL. On day 1, female nu/nu mice at 5-6 weeks of age are injected intravenously with BaF3 cells injected injecting 0.1 mL (5×10^6) cells in the tail vein (mice without cell injected are included as control group). Compound stocks in dimethylsulfoxide are stored at room temperature protected from light. Stocks are diluted prior to dosing, diluting 22 μL of compound stock into 858 μL of diluent (or 50 μL into 1950 μL) to provide vehicle of 1.0% Polysorbate 80, 0.5% hydroxypropyl methyl cellulose, with final dimethylsulfoxide at 2.5% in all dosing suspensions and vehicle control. Dosing suspension is prepared prior to use, mixing by inversion and sonication in a water bath to make a uniform suspension. On days 10-18, mice are treated with vehicle only or the desired level of compound in vehicle, ˜0.2 mL per 25 gm mouse, once a day by oral gavage, or in some instances, twice per day. On day 18, mice are administered a final dose and two hours later a plasma sample is taken. At four hours following the final dose, mice are sacrificed, an additional plasma sample is collected and mouse spleens are removed and weighed. […] Percent spleen growth inhibition is calculated as 100×[(spleen weight vehicle control-spleen weight test compound)/spleen weight vehicle control]. […]

BCR-TRK2 BaF3 cells = assay: Splenomegaly mouse model, BCR-TRK2 BaF3 cells; type: in vivo
Description: BaF3 cells are engineered with any of BCR-FMS, BCR-TRK1 or BCR-TRK2 to assess in vivo inhibitory effects of Fms, TrkA or TrkB inhibition, respectively. BaF3 cells are maintained in growth media (RPMI containing 10% FBS, 1% PenStrep, 1% NEAA, and 1% L-Glutamine, supplemented with 5% murine IL-3 and 1 mg/mL G418). Four days prior to start, 2×10^6 cells are inoculated into a T150 vented flask using the growth media and incubated at 37° C. in 5% CO2 for three days. One day prior to start, cells are collected by centrifugation and are suspended in growth media without IL-3. On the day of cell implant, the cells are collected by centrifugation, rinsed 3×20 mL with RPMI, then are suspended in 5.4 mL of media and counted, then adjusted with additional RPMI as needed to give 5×10^7 cells/mL. On day 1, female nu/nu mice at 5-6 weeks of age are injected intravenously with BaF3 cells injected injecting 0.1 mL (5×10^6) cells in the tail vein (mice without cell injected are included as control group). Compound stocks in dimethylsulfoxide are stored at room temperature protected from light. Stocks are diluted prior to dosing, diluting 22 μL of compound stock into 858 μL of diluent (or 50 μL into 1950 μL) to provide vehicle of 1.0% Polysorbate 80, 0.5% hydroxypropyl methyl cellulose, with final dimethylsulfoxide at 2.5% in all dosing suspensions and vehicle control. Dosing suspension is prepared prior to use, mixing by inversion and sonication in a water bath to make a uniform suspension. On days 10-18, mice are treated with vehicle only or the desired level of compound in vehicle, ˜0.2 mL per 25 gm mouse, once a day by oral gavage, or in some instances, twice per day. On day 18, mice are administered a final dose and two hours later a plasma sample is taken. At four hours following the final dose, mice are sacrificed, an additional plasma sample is collected and mouse spleens are removed and weighed. The average spleen weight of vehicle control group mice is compared to the average spleen weight of the test compound mice. Percent spleen growth inhibition is calculated as 100×[(spleen weight vehicle control-spleen weight test compound)/spleen weight vehicle control]. In some instances, the compounds were not tested in all of the assays as indicated by NA in the table below.

BCR-FMS BaF3 cells = assay: Splenomegaly mouse model, BCR-FMS BaF3 cells; type: in vivo
Procedure, shortened: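 Female nu/nu mice given 5×10^6 engineered BaF3 cells i.v. on day 1; compound in 1.0% Polysorbate 80/0.5% HPMC/2.5% DMSO dosed orally once (sometimes twice) daily, days 10-18. Spleens weighed 4 h after final dose; % spleen growth inhibition calculated versus vehicle control.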

TrkC kinase = TrkC kinase (Homo sapiens, UniProt Q16288); assay: TrkC kinase biochemical activity assay (similar to TrkA assay); conditions: read-out: Biochemical Inhibition IC50 TrkC
Sequence of TrkC kinase (Q16288 32-839): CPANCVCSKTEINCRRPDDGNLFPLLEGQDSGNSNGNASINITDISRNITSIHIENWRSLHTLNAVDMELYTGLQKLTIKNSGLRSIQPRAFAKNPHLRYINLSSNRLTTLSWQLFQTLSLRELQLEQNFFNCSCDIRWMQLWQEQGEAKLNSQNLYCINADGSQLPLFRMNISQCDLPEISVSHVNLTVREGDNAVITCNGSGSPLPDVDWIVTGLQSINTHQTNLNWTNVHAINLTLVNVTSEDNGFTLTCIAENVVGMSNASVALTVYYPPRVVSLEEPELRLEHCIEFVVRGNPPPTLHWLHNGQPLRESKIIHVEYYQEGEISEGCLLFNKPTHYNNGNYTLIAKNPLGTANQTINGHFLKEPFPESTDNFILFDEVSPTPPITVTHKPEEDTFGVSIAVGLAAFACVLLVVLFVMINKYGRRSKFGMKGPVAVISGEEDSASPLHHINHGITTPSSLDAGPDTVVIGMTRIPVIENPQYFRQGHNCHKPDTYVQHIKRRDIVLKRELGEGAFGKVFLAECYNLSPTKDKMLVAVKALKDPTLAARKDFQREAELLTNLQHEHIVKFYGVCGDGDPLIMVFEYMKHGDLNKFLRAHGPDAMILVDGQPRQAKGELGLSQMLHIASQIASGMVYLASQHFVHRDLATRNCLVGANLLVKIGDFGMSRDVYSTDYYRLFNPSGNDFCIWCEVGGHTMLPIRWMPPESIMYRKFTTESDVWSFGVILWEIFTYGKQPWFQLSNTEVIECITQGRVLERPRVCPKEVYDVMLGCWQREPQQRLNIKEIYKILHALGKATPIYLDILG
Description: In one assay the biochemical activity IC50 values are determined with respect to inhibition of TrkA kinase activity, where inhibition of phosphorylation of a peptide substrate is measured as a function of compound concentration. Compounds to be tested, dissolved in DMSO (1 μL), are added to a white 384-well plate (Costar #3705). Working stocks of TrkA kinase (UBI), biotin-(E4Y)10 substrate (Upstate Biotech, Cat#12-440), and ATP (Sigma, Cat#A-3377) are prepared in 25 mM Hepes pH 7.5, 10 mM MnCl2, 1 mM DTT, 0.01% BSA, and 0.01% Tween-20. All components are added to the 384-well plate for a final concentration of 1 ng/well TrkA, 30 nM biotin-(E4Y)10 and 100 μM ATP in a volume of 20 μL. Each sample is at 5% DMSO. The plate is shaken for 1 minute at 1200 rpm, spun for 1 minute at 1000 rpm, then incubated for 40 minutes at room temperature. Just before use, working stocks of donor and acceptor beads from the AlphaScreen PY20 Detection Kit (PerkinElmer, Cat#676601M) are prepared in 25 mM Hepes pH 7.5, 100 mM EDTA. 0.01% BSA. Donor Beads solution (Streptavidin beads) is added (5 μL) to each well to final bead concentration of 10 μg/mL. The plate is incubated at room temperature for 20 minutes. Acceptor Beads solution (PY20 coated beads) are then added to each well (5 μL) to a final concentration of bead at 10 μg/mL. The plates are incubated at room temperature for 60 minutes. Fluorescence signal is recorded on the Envision reader. Phosphorylated substrate results in binding of the PY20 antibody and association of the donor and acceptor beads such that signal correlates with kinase activity. The signal vs. compound concentration is used to determine the IC50. Similar assays are used for TrkB and Trk C kinase.

[1] = dosed once per day at 10 mg per kg

Compound: COc1ncnc2[nH]cc(Cc3ccc(Nc4ccc(C5CC5)nc4)nc3F)c12 [Compound P-4004, (6-Cyclopropyl-pyridin-3-yl)-[6-fluoro-5-(4-methoxy-7H-pyrrolo[2,3-d]pyrimidin-5-ylmethyl)-pyridin-2-yl]-amine]
- % spleen growth inhibition, TrkA (BCR-TRK1 BaF3 cells; dosed at 30 mg/kg): 40%
- % spleen growth inhibition, TrkA (BCR-TRK1 BaF3 cells; [1]): 16%
- % spleen growth inhibition, TrkB (BCR-TRK2 BaF3 cells; dosed at 30 mg/kg): 91%
- % spleen growth inhibition, TrkB (BCR-TRK2 BaF3 cells; [1]): 41%
- % spleen growth inhibition, Fms (BCR-FMS BaF3 cells; dosed at 30 mg/kg): 70%
- % spleen growth inhibition, Fms (BCR-FMS BaF3 cells; [1]): 36%

Compound: Cc1ccc(Nc2ccc(Cc3c[nH]c4ncnc(C5CC5)c34)c(F)n2)cn1 [Compound P-4030, [5-(4-Cyclopropyl-7H-pyrrolo[2,3-d]pyrimidin-5-ylmethyl)-6-fluoro-pyridin-2-yl]-(6-methyl-pyridin-3-yl)-amine]
- % spleen growth inhibition, TrkB (BCR-TRK2 BaF3 cells; [1]): 50%
- % spleen growth inhibition, Fms (BCR-FMS BaF3 cells; [1]): 58%

Compound: CCOc1ccc(Nc2ncc(Cc3c[nH]c4ncc(C)cc34)cn2)cn1 [Compound P-3027, (6-Ethoxy-pyridin-3-yl)-[5-(5-methyl-1H-pyrrolo[2,3-b]pyridin-3-ylmethyl)-pyrimidin-2-yl]-amine]
- pIC50 (TrkC kinase): > 7.00
- % spleen growth inhibition, TrkB (BCR-TRK2 BaF3 cells; [1]): 2%
- % spleen growth inhibition, Fms (BCR-FMS BaF3 cells; [1]): 42%

Compound: COc1ccc(Nc2ccc(Cc3c[nH]c4ncc(C)cc34)c(F)n2)cn1 [Compound P-3019, [6-fluoro-5-(5-methyl-1H-pyrrolo[2,3-b]pyridin-3-ylmethyl)-pyridin-2-yl]-(6-methoxy-pyridin-3-yl)-amine]
- pIC50 (TrkC kinase): > 7.00
- % spleen growth inhibition, TrkB (BCR-TRK2 BaF3 cells; [1]): 14%
- % spleen growth inhibition, Fms (BCR-FMS BaF3 cells; [1]): 40%

Compound: COc1ccc(Nc2ccc(C(=O)c3c[nH]c4ncnc(C5CC5)c34)c(F)n2)cn1 [Compound P-4022, (4-cyclopropyl-7H-pyrrolo[2,3-d]pyrimidin-5-yl)-[2-fluoro-6-(6-methoxy-pyridin-3-ylamino)-pyridin-3-yl]-methanone]
- % spleen growth inhibition, TrkB (BCR-TRK2 BaF3 cells; [1]): 33%
- % spleen growth inhibition, Fms (BCR-FMS BaF3 cells; [1]): 42%

Compound: CCc1ccc(Nc2ccc(Cc3c[nH]c4ncnc(OC)c34)c(F)n2)cn1 [Compound P-4007, (6-Ethyl-pyridin-3-yl)-[6-fluoro-5-(4-methoxy-7H-pyrrolo[2,3-d]pyrimidin-5-ylmethyl)-pyridin-2-yl]-amine]
- % spleen growth inhibition, TrkB (BCR-TRK2 BaF3 cells; [1]): 19%
- % spleen growth inhibition, Fms (BCR-FMS BaF3 cells; [1]): 28%

Compound: CCOc1ccc(Nc2ccc(Cc3c[nH]c4ncnc(C)c34)c(F)n2)cn1 [Compound P-4006, (6-Ethoxy-pyridin-3-yl)-[6-fluoro-5-(4-methyl-7H-pyrrolo[2,3-d]pyrimidin-5-ylmethyl)-pyridin-2-yl]-amine]
- % spleen growth inhibition, TrkB (BCR-TRK2 BaF3 cells; [1]): 21%
- % spleen growth inhibition, Fms (BCR-FMS BaF3 cells; [1]): 55%

Compound: CCOc1ccc(Nc2ccc(Cc3c[nH]c4ncnc(OC)c34)c(F)n2)cn1 [Compound P-4005, (6-Ethoxy-pyridin-3-yl)-[6-fluoro-5-(4-methoxy-7H-pyrrolo[2,3-d]pyrimidin-5-ylmethyl)-pyridin-2-yl]-amine]
- % spleen growth inhibition, TrkA (BCR-TRK1 BaF3 cells; [1]): 25%
- % spleen growth inhibition, TrkB (BCR-TRK2 BaF3 cells; [1]): 35%
- % spleen growth inhibition, Fms (BCR-FMS BaF3 cells; [1]): 65%

Compound: CCc1ccc(Nc2ccc(Cc3c[nH]c4ncnc(C5CC5)c34)c(F)n2)cn1 [Compound P-4028, [5-(4-Cyclopropyl-7H-pyrrolo[2,3-d]pyrimidin-5-ylmethyl)-6-fluoro-pyridin-2-yl]-(6-ethyl-pyridin-3-yl)-amine]
- % spleen growth inhibition, TrkB (BCR-TRK2 BaF3 cells; [1]): 88%
- % spleen growth inhibition, Fms (BCR-FMS BaF3 cells; [1]): 86%
